Experimental data as given in patent US9993459B2, “Selective HDAC6 inhibitors and uses thereof” (Universiteit Gent, priority 2015, dated 2018).

Tests used:
HDAC3 = HDAC3 (Homo sapiens, UniProt O15379); assay: In vitro HDAC isozyme selectivity screen: HDAC3; type: biochemical
[1] = tested on: glucocorticoid receptor, GR; assay: GRE-dependent luciferase reporter p(GRE)2-50-luc in A549 cells; type: cell-based; conditions: for DEX-activated GR-driven gene expression (transcriptional activity of GR): A549, 1 μM or 10 μM, 1 h pre-incubation then DEX 1 μM 5 h
AP-1 = assay: AP1-dependent luciferase reporter pCollagenase-luc in PMA-treated A549 cells; type: cell-based; conditions: A549, 10 μM
Description: (§1) FIG. 2: A549 cells with the stably integrated recombinant reporter gene p(GRE)2-50-luc (A) were pre-incubated with respective solvents, the selective Glucocorticoid Receptor modulator CpdA (10 μM), 7a, (1 μM or 10 μM), 7b (1 μM or 10 μM), 13a (1 μM or 10 μM) for 1 h after which the synthetic glucocorticoid dexamethasone (DEX,1 μM) was added, where indicated, for 5 h. A549 cells with the stably integrated recombinant reporter gene p(IL6kB)350hu.IL6P-luc (B) or Collagenase-luc (C) were pre-incubated with respective solvents, DEX (1 μM), CpdA (10 μM), 7a, (1 μM or 10 μM), 7b (1 μM or 10 μM), 13a (1 μM or 10 μM) for 1 h after which TNF (2000 units/ml) or PMA (20 nM) were added, where indicated, for 5 h. Cell lysates were assayed for luciferase activities. Promoter activities are expressed as relative induction factor calculated as percentage of maximal DEX (A), TNF (B) or PMA (C) responses. […] Assays were performed in triplicate, and results are averages of at least three independent experiments and shown ±S.D. ****p<0.0001; ***p<0.001; **p<0.01; *p<0.05. Statistical significance was determined on the averaged results, and analysis performed using one-way ANOVA tests followed by a Tukey multiple comparison post test. […]

NF-κβ = assay: NF-κβ-dependent luciferase reporter p(IL6kB)350hu.IL6P-luc in TNF-activated A549 cells; type: cell-based; conditions: TNF-activated A549, 1 μM or 10 μM
Description: as §1

Chain of HDAC3 (O15379 whole entry, species assumed): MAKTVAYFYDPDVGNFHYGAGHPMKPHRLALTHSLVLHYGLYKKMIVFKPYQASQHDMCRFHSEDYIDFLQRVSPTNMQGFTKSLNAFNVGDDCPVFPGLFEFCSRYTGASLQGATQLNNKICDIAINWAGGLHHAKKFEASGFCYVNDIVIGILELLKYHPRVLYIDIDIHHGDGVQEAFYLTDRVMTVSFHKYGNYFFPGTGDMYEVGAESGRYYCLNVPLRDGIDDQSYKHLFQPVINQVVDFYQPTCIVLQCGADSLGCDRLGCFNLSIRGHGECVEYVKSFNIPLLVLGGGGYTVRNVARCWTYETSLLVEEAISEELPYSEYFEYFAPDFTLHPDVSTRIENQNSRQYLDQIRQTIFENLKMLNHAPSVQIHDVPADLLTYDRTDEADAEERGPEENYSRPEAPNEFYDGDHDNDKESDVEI
Chain of HDAC3 (Q9Y618 395-489 partner limits assumed, species assumed): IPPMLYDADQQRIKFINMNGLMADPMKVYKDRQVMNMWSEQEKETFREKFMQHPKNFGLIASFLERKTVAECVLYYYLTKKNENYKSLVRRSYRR

| Structure (SMILES) | IC50 (HDAC3; Table 2) [µM] | melting point [°C] | effect at 100 μM, HDAC3 (HDAC3; 100 μM) | DEX-activated GR-driven gene expression (transcriptional activity of GR) [1] | AP1-dependent promoter activity as compared to solvent control (DMSO) (AP-1) | block of the activity of NF-κβ (NF-κβ) | enhancement of GR-driven gene expression ([1]; A549, 1 μM, with DEX 1 μM) |
| --- | --- | --- | --- | --- | --- | --- | --- |
| O=C(NO)c1ccc(NCc2csc3cc(Br)ccc23)cc1 [Compound 13a, 6-bromo-3-[(4-hydroxycarbamoylphenyl)aminomethyl]-benzothiophene] | 6.6 | 179.5 | – | – | – | – | – |
| O=C(NO)c1ccc(NCc2csc3ccc(Br)cc23)cc1 [Compound 7b, 5-bromo-3-[(4-hydroxycarbamoylphenyl)aminomethyl]-benzothiophene] | – | – | less than 50% | leaves the transcriptional activity of GR unhampered | clearly induced the AP1-dependent promoter activity | not able to block the activity of NF-κβ | – |
| O=C(NO)c1ccc(NCc2csc3ccccc23)cc1 [Compound 7a, 3-[(4-hydroxycarbamoylphenyl)aminomethyl]benzothiophene] | – | 191 | – | leaves the transcriptional activity of GR unhampered | – | not able to block the activity of NF-κβ | able to significantly enhance GR-driven gene expression |
